According to patent US11345701B1, “KRAS mutant protein inhibitors” (Jacobio Pharmaceuticals Co., Ltd., priority 2021, dated 2022):
Like-named read-outs stand apart in the source and are kept apart here.

Assays:
HIS-KRAS(G12C) = HIS-KRAS(G12C) (Homo sapiens (Human), UniProt P01116, G12C); assay: SOS1 catalyzed nucleotide exchange assay (TR-FRET); format: biochemical; conditions: GDP-loaded HIS-KRAS(G12C), 1 hour pre-incubation, TR-FRET
Description: TR-FRET signals were then read on Tecan Spark multimode microplate reader. […] TR-FRET ratios for each individual wells were calculated by equation: TR-FRET ratio=(Signal F515/Signal F486)*10000. Then the data were analyzed using a 4-parameter logistic model to calculate IC50 values.

[1] = system: NCI-H358 cells expressing KRAS G12C mutant protein; assay: Phospho-ERK1/2(THR202/TYR204) HTRF assay; format: cell-based; conditions: 2 hours incubation, read-out: p-ERK IC50
Description: The NCI-H358 cells in culture medium were seeded in 96-well plates at a concentration of 40,000 cells/well and then put in a 37° C./5% CO2 cell incubator to incubate overnight. […] After 2 hours incubation in a 37° C./5% CO2 cell incubator, the assay medium in 96-well plates was removed, then 50 μL of 1× blocking reagent-supplemented lysis buffer (Cisbio) was added and the plates were incubated at 25° C. for 45 min with shaking. 10 μL of cell lysates from the 96-well plates were transferred to a 384-well plate (Greiner) containing 2.5 μL/well HTRF® pre-mixed antibodies (Cisbio 64AERPEH). Incubate 4 hours at 25° C. and then read HTRF signals on Tecan Spark multimode microplate reader. The data were analyzed using a 4-parameter logistic model to calculate IC50 values.

[2] = Dog pharmacokinetic study; format: in vivo, beagle dog; conditions: plasma, beagle dog; for clearance / Vd: 1 mg/kg, iv; for Vd: read-out: VSS; for AUC(0-t) / Cmax / bioavailability: 3 mg/kg, po; for AUC(0-t): read-out: AUC0-24h; for Cmax: read-out: Cmax; for bioavailability: read-out: Oral BA (F %)
Description: (§1) The purpose of this study was to evaluate the pharmacokinetic properties of compounds in beagle dog following single dose administration. The day before administration, dogs were fasted overnight and free access to water. Four beagle dogs were needed for each compound and the four dogs were divided into two groups, group A and group B (one male(♂) and one female (♀) in each group). Dogs in group A were treated with a single 1 mg/kg dose of compound (iv). Dogs in group B were treated with a single 3 mg/kg dose of compound (po). For dogs in group A, blood samples were collected at pre-dose, and at the time point of 0.083, 0.25, 0.5, 1, 2, 4, 6, 8 and 24 h post-dose. For dogs in group B, blood samples were collected at pre-dose, and at the time point of 0.25, 0.5, 1, 2, 4, 6, 8 and 24 h post-dose. Blood samples were placed on ice until centrifugation to obtain plasma samples. The plasma samples were stored at −80° C. until analysis. The concentration of compound in plasma samples was determined using a LC-MS/MS method.

[3] = Cynomolgus monkey pharmacokinetic study; format: in vivo; conditions: plasma, cynomolgus monkey; for clearance / Vd: 1 mg/kg, iv; for Vd: read-out: VSS; for AUC(0-t) / Cmax / bioavailability: 3 mg/kg, po; for AUC(0-t): read-out: AUC0-24h; for Cmax: read-out: Cmax; for bioavailability: read-out: Oral BA (F %)
Description: as §1, with “cynomolgus monkey” for “beagle dog”, “monkeys” for “dogs”, “monkeys are” for “beagle dogs were”, “male (♂)” for “male(♂)”, “Monkeys” for “Dogs”

[4] = Mouse pharmacokinetic study; format: in vivo, Balb/c mouse; conditions: for clearance / Vd / AUC(0-t) / Cmax / bioavailability: plasma, Balb/c mouse (female); for clearance / Vd: 3 mg/kg, iv; for Vd: read-out: Vss; for AUC(0-t) / Cmax / bioavailability: 10 mg/kg, po; for AUC(0-t): read-out: AUC0-24 h; for Cmax: read-out: Cmax; for bioavailability: read-out: Oral BA (F %)
Description: The purpose of this study was to evaluate the pharmacokinetic properties of compounds in Balb/c mouse (♀) following single dose administration. The day before administration, mice were fasted overnight and free access to water. Six mice were needed for each compound and the six mice were divided into two groups (n=3/group), group A and group B. Mice in group A were treated with a single 3 mg/kg dose of compound (iv). Mice in group B were treated with a single 10 mg/kg dose of compound (po). For each mouse in group A, blood samples were collected at pre-dose, and at the time point of 0.083, 0.25, 0.5, 1, 2, 4, 6, 8 and 24 h post-dose. For each mouse in group B, blood samples were collected at pre-dose, and at the time point of 0.25, 0.5, 1, 2, 3, 4, 6, 8 and 24 h post-dose. Blood samples were placed on ice until centrifugation to obtain plasma samples. The plasma samples were stored at −80° C. until analysis. The concentration of compound in plasma samples was determined using a LC-MS/MS method.

Chain of HIS-KRAS(G12C) (P01116 other isoform, or with tags, fused parts or gaps G12C): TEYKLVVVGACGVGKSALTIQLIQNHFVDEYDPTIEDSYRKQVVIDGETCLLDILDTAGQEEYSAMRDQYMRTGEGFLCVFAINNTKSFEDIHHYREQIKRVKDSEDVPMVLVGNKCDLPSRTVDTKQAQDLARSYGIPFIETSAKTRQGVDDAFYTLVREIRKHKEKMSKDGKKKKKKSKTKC

C=CC(=O)N1[C@H](C)CN(c2nc(=O)n(-c3c(C)ccnc3C(C)C)c3nc(-c4c(F)c(F)c(F)c(N)c4Cl)c(F)cc23)C[C@@H]1C (single isomer, unassigned) [Compound 7-1]
IC50 (HIS-KRAS(G12C)): 6.54 nM | IC50 ([1]; Homo sapiens, NCI-H358, 2 h): 36.7 nM

C=CC(=O)N1CCN(c2nc(=O)n(-c3c(C)ccnc3C(C)C)c3nc(-c4c(N)c(F)c(F)c(F)c4F)c(F)cc23)[C@@H](C)C1 (atropisomer, axis not shown; (P)) [Compound 2-2, (P)-4-((S)-4-acryloyl-2-methylpiperazin-1-yl)-7-(2-amino-3,4,5,6-tetrafluorophenyl)-6-fluoro-1-(2-isopropyl-4-methylpyridin-3-yl)pyrido[2,3-d]pyrimidin-2(1H)-one]
IC50 (HIS-KRAS(G12C)): 61.8 nM | IC50 [1]: 681 nM

C=CC(=O)N1[C@H](C)CN(c2nc(=O)n(-c3c(C)ccnc3C(C)C)c3nc(-c4c(N)c(F)c(F)c(F)c4F)c(F)cc23)C[C@@H]1C (single isomer, unassigned) [Compound 5-1]
IC50 (HIS-KRAS(G12C)): 3.3 nM | IC50 [1]: 17.8 nM

C=CC(=O)N1CCN(c2nc(=O)n(-c3c(C)ccnc3C(C)C)c3nc(-c4c(F)c(F)c(F)c(N)c4Cl)c(F)cc23)[C@@H](C)C1 (single isomer, unassigned) [Compound 1-1]
IC50 (HIS-KRAS(G12C)): 4.08 nM | IC50 ([1]; Homo sapiens, NCI-H358, 2 h): 16.6 nM

C=CC(=O)N1CCN(c2nc(=O)n(-c3c(C)ccnc3C(C)C)c3nc(-c4c(N)c(F)c(F)c(F)c4F)c(F)cc23)C[C@H]1C (single isomer, unassigned) [Compound 4-1]
IC50 (HIS-KRAS(G12C)): 3.31 nM | IC50 ([1]; Homo sapiens, NCI-H358, 2 h): 40.9 nM

C=CC(=O)N1[C@H](C)CN(c2nc(=O)n(-c3c(C)ccnc3C(C)C)c3nc(-c4c(N)c(F)c(F)c(F)c4F)c(F)cc23)C[C@@H]1C (single isomer, unassigned) [Compound 5-2]
IC50 (HIS-KRAS(G12C)): 96.1 nM | IC50 [1]: 774 nM

C=CC(=O)N1CCN(c2nc(=O)n(-c3c(C)ccnc3C(C)C)c3nc(-c4c(N)c(F)c(F)c(F)c4F)c(F)cc23)CC1 (single isomer, unassigned) [Compound 3-1, 4-(4-acryloylpiperazin-1-yl)-7-(2-amino-3,4,5,6-tetrafluorophenyl)-6-fluoro-1-(2-isopropyl-4-methylpyridin-3-yl)pyrido[2,3-d]pyrimidin-2(1H)-one]
IC50 (HIS-KRAS(G12C)): 3.14 nM | IC50 ([1]; Homo sapiens, NCI-H358, 2 h): 25.4 nM

C=CC(=O)N1CCN(c2nc(=O)n(-c3c(C)ccnc3C(C)C)c3nc(-c4c(O)cccc4F)c(F)cc23)[C@@H](C)C1 [Amg-510, reference compound]
clearance ([2]; female): 20.1 mL/min/kg | Vd ([2]; female): 0.543 L/kg | AUC(0-t) ([2]; female): 404 ng·h/mL | Cmax ([2]; female): 450 ng/mL | bioavailability ([2]; female): 16.4% | clearance ([2]; male): 21.1 mL/min/kg | Vd ([2]; male): 0.535 L/kg | AUC(0-t) ([2]; male): 1990 ng·h/mL | Cmax ([2]; male): 1840 ng/mL | bioavailability ([2]; male): 84.4% | clearance ([3]; female): 84.3 mL/min/kg | Vd ([3]; female): 2.01 L/kg | AUC(0-t) ([3]; female): 241 ng·h/mL | Cmax ([3]; female): 100 ng/mL | bioavailability ([3]; female): 41.3% | clearance ([3]; male): 25.5 mL/min/kg | Vd ([3]; male): 0.775 L/kg | AUC(0-t) ([3]; male): 214 ng·h/mL | Cmax ([3]; male): 133 ng/mL | bioavailability ([3]; male): 11% | clearance [4]: 40.5 mL/min/kg | Vd [4]: 1.64 L/kg | AUC(0-t) [4]: 1810 ng·h/mL | Cmax [4]: 1600 ng/mL | bioavailability [4]: 43.9%

C=CC(=O)N1[C@H](C)CN(c2nc(=O)n(-c3c(C)ccnc3C(C)C)c3nc(-c4c(N)c(F)c(F)c(F)c4F)c(F)cc23)C[C@@H]1C [Compound 5, 4-((3S,5R)-4-acryloyl-3,5-dimethylpiperazin-1-yl)-7-(2-amino-3,4,5,6-tetrafluorophenyl)-6-fluoro-1-(2-isopropyl-4-methylpyridin-3-yl)pyrido[2,3-d]pyrimidin-2(1H)-one]
IC50 (HIS-KRAS(G12C)): 5.41 nM | IC50 ([1]; Homo sapiens, NCI-H358, 2 h): 48.8 nM

C=CC(=O)N1CCN(c2nc(=O)n(-c3c(C)ccnc3C(C)C)c3nc(-c4c(N)c(F)c(F)c(F)c4F)c(F)cc23)[C@@H](C)C1 [Compound 2, 4-((S)-4-acryloyl-2-methylpiperazin-1-yl)-7-(2-amino-3,4,5,6-tetrafluorophenyl)-6-fluoro-1-(2-isopropyl-4-methylpyridin-3-yl)pyrido[2,3-d]pyrimidin-2(1H)-one]
IC50 (HIS-KRAS(G12C)): 2.04 nM | Pharmacokinetic properties in words ([4]; mouse model, 3 mg/kg iv and 10 mg/kg po): good pharmacokinetic properties | clearance [4]: 65.2 mL/min/kg | Vd [4]: 2.31 L/kg | AUC(0-t) [4]: 1150 ng·h/mL | Cmax [4]: 1440 ng/mL | bioavailability [4]: 44.7% | IC50 ([1]; Homo sapiens, NCI-H358, 2 h): 30.7 nM

C=CC(=O)N1CCN(c2nc(=O)n(-c3c(C)ccnc3C(C)C)c3nc(-c4c(F)c(F)c(F)c(N)c4Cl)c(F)cc23)[C@@H](C)C1 [Compound 1, 4-((S)-4-acryloyl-2-methylpiperazin-1-yl)-7-(3-amino-2-chloro-4,5,6-trifluorophenyl)-6-fluoro-1-(2-isopropyl-4-methylpyridin-3-yl)pyrido[2,3-d]pyrimidin-2(1H)-one]
IC50 (HIS-KRAS(G12C)): 7.25 nM | IC50 ([1]; Homo sapiens, NCI-H358, 2 h): 70.1 nM
